Experimental data published in US7812142B2, “Pentose derivatives as anti-hyperglycemic drugs” (Yissum Research Development Company of the Hebrew …, priority 2002, dated 2010).

Assays:
PKB = PKB phosphorylation immunoblot in L6 myotubes; type: cell-based, rat; settings: 23.0 mM glucose; 100 nM insulin, 20 mM xylose, 5 mM EH-114 or 250 μM EH-40, up to 24 hrs (FIG. 11B)
Procedure: FIG. 11B: Effects of insulin D-xylose and xylose derivatives on PKB phosphorylation. L6 myotubes were maintained at 5.5 mM or 23.0 mM glucose. The latter were treated with 100 nM insulin, 20 mM xylose, 5 mM EH-114 or 250 μM EH-40 up to 24 hrs. At the indicated times treated myotubes were collected, homogenized and lysed and the soluble protein fraction was isolated. The control myotubes were collected at the end of the 24 hr incubation period. Equal amounts of proteins of the various treated myotubes were separated on SDS-PAGE and immunoblotted with a specific antibody against phospho-Axt1/PKBα (Ser473). In order to test whether xylose derivative activate insulin transduction elements downstream of PI3K, the inventors tested the state of PKB phosphorylation, as shown in FIG. 11B.

glucose transporter [1] = assay: [3H]dGlc uptake with unlabeled carbohydrates (affinity for the glucose transporter) in C2 myotubes; type: cell-based, mouse
Procedure: FIG. 6: Lack of affinity of D-xylose for the glucose transporters. C2 myotubes preconditioned with 20 mM glucose were subjected to [^3H]dGlc uptake assay (0.1 mM dGlc) with increasing concentrations of unlabeled dGlc, glucose or xylose. The unlabeled carbohydrates were added to the [^3H]dGlc solution in the uptake assay.
The inventors have also determined the affinity of D-xylose for the glucose transporter. C2 myotubes preconditioned with 20 mM glucose were subjected to [^3H]dGlc uptake assay (0.1 mM dGlc) in the presence of increasing concentrations of unlabeled dGlc, glucose or xylose. The results of these experiments are depicted in FIG. 6. The affinity of D-xylose for the glucose transporter is 2 orders of magnitude lower compared to glucose. The final concentration of dGlc in the assay was 0.1 mM.

3T3-L1 adipocytes = assay: Screening of methylated xylose derivatives, dGlc uptake assay (Table 1); type: cell-based; settings: Mean±SEM (n=3-6)
Text: There are five carbon atoms in xylose available for chemical modifications. Each of these atoms was methylated by modifications of published chemical procedures [Bollenback, G. N. (1963) In Methods in carbohydrate chemistry, vol. 2 (Whistler, R. L. and Wolfrom, M. L., eds.), pp. 326-331, Academic Press, New York; Bowering, W. and Timel, T. (1958) Can. J. Chem. 36, 283-285; Levine, P. and Raymomd, A. (1933) J. Biol. Chem. 102, 331-344; Takeo, K. (1992) Carbohyd. Res. 224, 311-318]. All compounds were purified by HPLC and their structure verified by NMR spectroscopy. […] At the end of the incubation period the cells were taken for a standard [^3H]-2-deoxy-D-glucose uptake assay in the absence or the presence of 500 nM insulin (30 min exposure prior to the uptake assay).
3T3-L1 adipocytes and L6 myotubes were maintained for 24 hr at 20 mM glucose. Test compounds were added (0.1-20.0 mM) and the cells were incubated further for 2-45 hr. At the end of the incubation periods the cells were washed and taken for a standard [^3H]2-deoxy-D-glucose (dGlc) uptake assay. Uptake values (given for control cells) are in nmol dGlc/mg protein/min. Mean±SEM (n=3-6).
Uptake assay of the tritiated glucose analogue, 2-deoxy-D-glucose, is routinely performed as described in [Sasson, S. and Cerasi, E. (1986) J. Biol. Chem. 261, 16827-16833].

[2] = Half-life of D-xylose measured in rats; settings: rat, in vivo
glucose transporter [3] = assay: Non-radioactive fluorimetric dGlc-6-P uptake assay with 10 mM dGlc; type: cell-based; settings: 10 mM dGlc in the uptake assay
Procedure: Since the standard hexose transport assay utilizes 0.1 mM dGlc in the presence of tracer amount of [^3H] dGlc, the inventors asked whether the results shown above were limited to this particular assay condition. Therefore, experiments were repeated with 10 mM dGlc in the uptake assay. […] The uptake of hexose under these assay conditions was also linear up to 25 min.

[4] = system: isolated rat soleus muscles; assay: dGlc uptake in isolated soleus muscles; type: cell-based; settings: 3 hr, 20 mM glucose with 20 mM xylose (FIG. 9)
Procedure: FIG. 9: Effect of D-xylose on dGlc uptake in soleus muscles. Soleus muscles were isolated from Sabra male albino rats and incubated for 3 hr with 20 mM glucose in the absence or the presence of 20 mM xylose. The muscles were washed and subjected to dGlc uptake assay without or with insulin (500 nM). Mean±SEM (n=3).
Some experiments with isolated rat soleus muscles were performed, in order to exclude cell-line specific effects, and to assess the physiologic relevance of the findings of the present invention. Soleus muscles were isolated from Sabra male albino rats and incubated for 3 hr with 20 mM glucose in the absence or the presence of 20 mM xylose. The muscles were washed and subjected to dGlc uptake assay without or with insulin (500 nM).
The procedure follows that described before in [Sasson et al (1987), Diabetes 36, 1041-46].

SMILES: O=C[C@H](O)[C@@H](O)[C@H](O)CO [D-xylose]
- PKB phosphorylation (PKB): failed to induce significant phosphorylation
- affinity for the glucose transporter compared to glucose (glucose transporter [1]; 0.1 mM dGlc (FIG. 6)): 2 orders of magnitude lower
- competition with [3H]dGlc (glucose transporter [1]; 0.1 mM dGlc, increasing unlabeled carbohydrate): much weaker competitor
- molar excess necessary to achieve 50% inhibition of transport (glucose transporter [1]; over 0.1 mM dGlc): at least 100 fold molar excess
- HEXOSE UPTAKE (Percent of Control) Without Insulin (3T3-L1 adipocytes; 3T3-L1 adipocytes 24 hr at 20 mM glucose, test compounds 0.1-20.0 mM, 2-45 hr): 189 ± 4% of Control
- HEXOSE UPTAKE (Percent of Control) With Insulin (3T3-L1 adipocytes; as E1, 500 nM insulin 30 min prior to uptake assay): 158 ± 9% of Control
- half-life [2]: 30 to 60 min
- competition for transport at high hexose level (glucose transporter [3]): does not compete for transport via the glucose transporter
- increase of the rate of dGlc uptake [4]: 42%
